One assay has as its target CDK6/Cyclin D1 (Homo sapiens (Human), UniProt Q00534). The experiment in a line: biochemical.
Assay [1] deals with HCC1806 mouse tumor xenograft. Put plainly: HCC1806 tumor model (mouse xenograft). Type of assay: in vivo. As to conditions: NU/NU female mice, 30 mpk PO BID, 50 mpk PO BID and 75 mpk PO BID, 14 days. The procedure:
Source: HCC1806 (#CRL 2335, ATCC, Manassas, Va.)
The HCC1806 tumor cell line was cultured in RPM11640 media supplemented with 10% Fetal Bovine Serum (FBS). To establish a HCC1806 xenograft model, 5×10^6 cells per mouse were implanted subcutaneously into right hind flank NU/NU female mice. Cells were suspended in 50% Cultrex Basement Membrane Extract and 50% RPMI 1640 media serum free media prior to implantation.
Animals were randomized 7 days after cells implantation with each group consisting of 13 mice. Treatment began when tumors reached 100 mm^3 to 170 mm^3 in size on Day 7. Test compounds were prepared in 0.1% Tween, 0.5% Methyl cellulose in water and dosed PO at 30, 50, and 75 mg/kg as a suspension BID for 14 days. Mice receiving no drugs were given vehicle BID for 14 days. Tumor volumes were measured twice a week with an electric caliper, with tumor volumes calculated using Length×Width×Width/2 formula. Animal weights were recorded twice weekly.

Chain of CDK6/Cyclin D1 (Q00534 whole entry): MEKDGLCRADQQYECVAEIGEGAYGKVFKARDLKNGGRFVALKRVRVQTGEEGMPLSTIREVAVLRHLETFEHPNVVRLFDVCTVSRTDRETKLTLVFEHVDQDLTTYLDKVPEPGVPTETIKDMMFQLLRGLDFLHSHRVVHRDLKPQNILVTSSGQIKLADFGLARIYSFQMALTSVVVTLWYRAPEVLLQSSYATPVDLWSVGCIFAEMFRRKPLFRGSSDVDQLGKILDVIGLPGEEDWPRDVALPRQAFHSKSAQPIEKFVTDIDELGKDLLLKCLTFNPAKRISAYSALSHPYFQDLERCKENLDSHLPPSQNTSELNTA
Chain of CDK6/Cyclin D1 (P24385 whole entry partner): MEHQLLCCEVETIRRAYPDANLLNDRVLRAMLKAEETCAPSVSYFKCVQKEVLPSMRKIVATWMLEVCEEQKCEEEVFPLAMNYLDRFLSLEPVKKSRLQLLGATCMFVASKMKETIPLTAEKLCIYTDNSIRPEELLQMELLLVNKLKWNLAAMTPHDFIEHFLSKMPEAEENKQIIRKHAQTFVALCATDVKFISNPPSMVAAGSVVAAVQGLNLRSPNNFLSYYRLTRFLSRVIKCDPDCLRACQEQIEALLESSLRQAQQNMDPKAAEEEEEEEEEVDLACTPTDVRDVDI

Broadly, the Ki is the equilibrium dissociation constant of an inhibitor or competing ligand from its target. Low readings indicate tighter binding, high ones weaker binding. Compound `C[C@]1(O)CCCC1n1c(=O)ccc2cnc(NC3CCN(S(=O)(=O)C(F)(F)F)CC3)nc21` (single isomer, unassigned) [Example 89] registered a Ki on CDK6/Cyclin D1 of 11.3 nM. For `C[C@@]1(O)CCC[C@H]1n1c(=O)ccc2cnc(NC3CCN(S(C)(=O)=O)CC3)nc21` [Example 2, 8-[(1R,2R)-2-hydroxy-2-methylcyclopentyl]-2-{[1-(methylsulfonyl)piperidin-4-yl]amino}pyrido[2,3-d]pyrimidin-7(8H)-one], the “inhibition of tumor growth (mm^3)” value in assay [1] was “dose dependent inhibition of tumor growth”.

These data come from patent publication US11396512B2, “CDK2/4/6 inhibitors” (Pfizer Inc., priority 2016, dated 2022).
